The values below come from ChEMBL document CHEMBL1136589, “Antineoplastic agents 390. Isolation and structure of phakellistatin 12 from a Chuuk archipelago marine sponge” (2003).

In the test the test system is P388. The test is described as follows: Inhibitory activity against P388 lymphocytic leukemia cells. The test is classed as functional. As to conditions: Mus musculus, read-out: ED50 (the source's name).

Values after ≈ are worked out from the molar mass of the structure shown. Where a SMILES comes first, the peptide text is derived from it.

In the case of `CC[C@H](C)[C@@H]1NC(=O)[C@@H]2CCCN2C(=O)[C@@H]2CCCN2C(=O)[C@H]([C@@H](C)CC)NC(=O)[C@H](Cc2ccc(O)cc2)NC(=O)[C@@H]2CCCN2C(=O)[C@@H]2CCCN2C(=O)[C@H](CC(C)C)NC(=O)[C@H]([C@@H](C)O)NC(=O)[C@H](Cc2ccccc2)NC1=O` [PHAKELLISTATIN 12] (cyclo(FTLPPYIPPI)), the EC50 came out at 2.8 mg/L (≈ 2.46 µM).
